# “Also recorded” adds a separate entry of the source.
# Assays:
# Type in all cases: cell-based, rat
# [1] = system: PC12 cells; assay: Aβ1-42-induced neurotoxicity, cell viability by MTT assay
# Protocol: (§1) PC12 cells (rat pheochromocytoma) (ATCC, Manassas, Va.) were cultured in RPMI 1640 without glutamine medium containing 10% of bovine serum and 5% of horse serum at 37° and 5% CO2. These cells respond reversibly to NGF by induction of the neuronal phenotype. PC12 cells were incubated for 24 hours in 96-well plates (5.10^4 cells per well) with increasing concentrations (1, 10 and 100 μM) of procaine, procainamide, lidocaine, tetracaine, SP015, SP016, SP017 or SP008. Aβ1-42 was incubated overnight at 4° C. and then added to the cells at 0.1, 1 or 10 μM final concentrations for a 24 hours time period.
# (§2) The cellular toxicity of Aβ was assessed using the 3-(4,5-dimethylthiazol-2-yl)-2,5-diphenyl tetrazolium bromide (MTT) assay (Trevigen, Gaithersburg, Md.) as previously described (Lecanu et al. (2004) Steroids, 69: 1-16). Briefly, 10 μl of the MTT solution were added to the cells cultured in 100 μl of medium. After an incubation period of 4 hours in the same conditions as above, 100 μl of detergent were added and cells incubated overnight at 37° C. The blue coloration was quantified at 600 nm and 690 nm using the Victor spectrophotometer (EGG-Wallac, Gaithersburg, Md.). The effect of Aβ1-42 was expressed as (DO600-DO690). To compare the protective effect of the compounds tested, the decrease of MTT signal observed with Aβ1-42 was considered to be the 100% inhibition of the NADPH diaphorase activity and the effect of the compounds tested is shown as an increase or decrease of this percentage.
# [2] = system: PC12 cells; assay: Aβ1-42-induced ATP depletion, ATPLite-M assay; settings: for protective effect on mitochondrial function / ATP content: compound at 1 μM
# Protocol: as §1
# ATP concentrations were measured using the ATPLite-M™ assay (Packard BioSciences Co.), as previously described (Lecanu et al., cited above). In brief, cells were cultured on black 96-well ViewPlate™ and the ATP concentrations measured on a TopCount NXT™ counter (Packard BioSciences Co.) according to the manufacturer recommendations. The effect of Aβ1-42 was expressed in arbitrary units. To compare the potential protective effect of the compounds tested on ATP recovery, the decrease of ATP concentration induced by Aβ1-42 was considered to be 100% reduction and the effects of the compounds tested are shown as changes of this percentage.
# [3] = system: PC12 cells; assay: Glutamate-induced excitotoxicity, cell viability by MTT assay; settings: for prevention of glutamate-induced neurotoxicity: 24 h pre-treatment with compound 0.3-30 μM
# Protocol: To study the role played by the NMDA receptor in the Aβ1-42-induced neurotoxicity, increasing concentrations of (+)-MK801 were added to the cell media immediately before Aβ1-42. Cell viability was assessed 4 hours later using the MTT assay. To assess the effect of procaine and SP008 on the glutamate-induced excitotoxicity, PC12 cells were pre-treated with procaine or SP008 at 0.3, 1, 3, 10 and 30 μM for 24 hours and then submitted to glutamate exposure for another 24 hour time period. Cell viability was subsequently assessed using the MTT assay. To assess the role of sodium channels in A8142-induced neurotoxicity, PC12 cells were incubated for 4 hours with the sodium-channel blocker TTX at 3, 30 or 300 μM followed by addition of Aβ1-42. Cell viability was assessed by MTT 24 hours later. The involvement of the oxidative stress in the toxicity of Aβ1-42 was assessed by incubating the PC12 in the presence of 10, 100 or 500 μM PBN for 24 hours. Aβ1-42 was then added to the incubation media. Cell viability was assessed by MTT 24 hours later.
# as §2
structure (smiles),measurement,setting,value
"CC(=O)OC1CC(O)C2(C)C(OC(C)=O)C3C(CC(C)C12)OC(=O)C3CN1CCN(C(=O)c2ccccc2)CC1 (stereo not drawn) [SP015, Acetic acid 7-acetoxy-3-(4-benzoyl-piperazin-1-yl-methyl)-5-hydroxy-4a,8-dimethyl-2-oxo-dodecahydro-azuleno[6,5-b]furan-4-yl ester]","neuroprotection against Aβ1-42 (PC12 viability), general statement",[1],neuroprotection
same,neuroprotective effect on PC12 viability after Aβ1-42 exposure,"[1]; compound at 1 and 10 μM, only against 10 μM Aβ1-42",displayed a neuroprotective effect
same,"preservation of intracellular ATP against Aβ1-42, general statement",[2],preservation of the ATP cellular stocks
same,protective effect on mitochondrial function / ATP content,[2]; highest Aβ1-42 concentration examined,important protection
"CC(=O)OC1CC(OC(C)=O)C2(C)C(O)C3C(CC(C)C12)OC(=O)C3CN1CCN(C(=O)c2ccccc2)CC1 (stereo not drawn) [SP016, acetic acid 5-acetoxy-3-(4-benzoylpiperazin-1-yl-methyl)-4-hydroxy-4a,8-dimethyl-2-oxo-dodecahydro-azuleno[6,5-b]furan-7-yl ester]","neuroprotection against Aβ1-42 (PC12 viability), general statement",[1],no effect was observed
same,"preservation of intracellular ATP against Aβ1-42, general statement",[2],preservation of the ATP cellular stocks
same,protective effect on mitochondrial function / ATP content,[2]; low Aβ1-42 concentrations (0.1 μM),significant effect
"CCN(CC)CCOC(=O)c1ccc(N)cc1 [procaine, reference compound]","preservation of intracellular ATP against Aβ1-42, general statement",[2],restore partially
same,"inhibition of the neurotoxic effect of glutamate, general statement",[3],inhibited the neurotoxic effect
same,prevention of glutamate-induced neurotoxicity,[3]; glutamate 100 μM,prevented the glutamate-induced neurotoxicity in a biphasic manner
"CCN1CCN(C(=O)c2ccc(OC)c(OC)c2OC)CC1 [SP008, 4-Ethyl-1-(2,3,4-trimethoxybenzoyl)-piperazine]","neuroprotection against Aβ1-42 (PC12 viability), general statement",[1],significant neuroprotective properties; also recorded: strong neuroprotective properties
same,protective effect against Aβ1-42-induced cytotoxicity (MTT),"[1]; 0.1 μM Aβ1-42, compound at 10 μM, p<0.01",exerted a protective effect
same,reduction of Aβ1-42-induced NADPH diaphorase inhibition (MTT),"[1]; 0.1 μM Aβ1-42, compound at 1 and 100 μM",did not reduce
same,neuroprotective effects against Aβ1-42 (MTT),"[1]; 1 μM Aβ1-42, compound at 1 (p<0.05), 10 (p<0.01) and 100 μM (p<0.001)",demonstrated neuroprotective effects
same,neuroprotective properties against Aβ1-42-induced toxicity (MTT),"[1]; 10 μM Aβ1-42, compound at 10 (p<0.05) and 100 μM (p<0.01)",displayed neuroprotective properties
same,potency against Aβ1-42 compared with procaine,[1]; two highest concentrations of Aβ1-42,more potent than procaine
same,"preservation of intracellular ATP against Aβ1-42, general statement",[2],preserved Aβ1-42-induced ATP depletion
same,preservation of Aβ1-42-depleted ATP stock,"[2]; 0.1 μM Aβ1-42, compound at 10 μM",did not preserve
same,prevention of ATP decrease,"[2]; 0.1 μM Aβ1-42, compound at 1 and 100 μM, p<0.05",prevented the ATP decrease
same,ATP preservation,"[2]; 1 μM Aβ1-42, compound 1-100 μM",dose-dependent ATP preservation
same,restoration of ATP levels,"[2]; 10 μM Aβ1-42, only 100 μM compound statistically significant (p<0.01)",dose-dependent restoration of ATP levels
same,prevention of Aβ1-42-induced intracellular ATP stock depletion,[2]; even against 10 μM Aβ1-42,prevent the Aβ1-42-induced intracellular ATP stock depletion
same,"inhibition of the neurotoxic effect of glutamate, general statement",[3],inhibited the neurotoxic effect
same,lowest concentration reducing glutamate-induced neurotoxicity,[3],0.3 µM
same,prevention of glutamate-induced neurotoxicity,[3]; glutamate 100 μM,biphasic
same,neuroprotective effect compared with procaine at the same concentration,"[3]; glutamate 100 μM, p<0.001",more important than the procaine effect
same,concentration of maximum (peak) protective effect,"[3]; glutamate 100 μM, p<0.001 compared to control",3 µM
"CC1=CCC23OC2(C)CCC2C(CN4CCN(C(=O)c5ccccc5)CC4)C(=O)OC2C13 (stereo not drawn) [SP017, 3-(4-benzoyl-piperazin-1-yl-methyl)-6,6a-epoxy-6,9-dimethyl-3a,4,5,6,6a,7,9a,9b-octahydro-3H-azuleno[4,5-b]furan-2-one]","efficacy range, inhibition of Aβ1-42 toxicity (mitochondrial diaphorase activity)",[1],30-70%
same,"neuroprotection against Aβ1-42 (PC12 viability), general statement",[1],highest protective effect; also recorded: neuroprotection
same,"preservation of intracellular ATP against Aβ1-42, general statement",[2],preservation of the ATP cellular stocks

# From patent US20090197891A1, “Use of (4-Alkylpiperazinyl)(phenyl) methanones in the treatment of alzheimer's disease” (priority 2004, published 2009)
